How the values were obtained:
[1] = design: method as in PMID 17234791; conditions: compared with the other isomer; cited from earlier work
[2] = Ex vivo biodistribution studies; conditions: SD rats, mean ± SEM, n = 4
Source text: Major organs and tissues (blood, heart, lung, liver, pancreas, spleen, kidney, intestine, muscle, and brain), were promptly excised, harvested, and weighed. Radioactivity was counted using a γ-counter and expressed as a percentage of the injected dose per gram of wet tissue (%ID/g). All radioactivity measurements were corrected for decay.

[3] = PET, rats, 60 min after injection
Procedure: Emission scans were acquired in three-dimensional list mode with an energy window of 350–650 keV under isoflurane anesthesia, from 0 to 60 min after radioprobe administration. All list-mode acquisition data were sorted into three-dimensional sinograms, which were then Fourier-rebinned into two-dimensional sonograms (frames × min: 4 × 1, 8 × 2, 8 × 5), and corrections for scanner dead time, randoms, and decay of the injected radioprobe. Dynamic images were reconstructed with filtered back-projection using a Hanning filter and a Nyquist cut-off of 0.5 cycles/pixel. Immediately after completion of PET scans, contrast-enhanced CT scans were performed in the rats by using the small-animal CT system (R_mCT2; Rigaku, Tokyo) after injection of 1 mL of non-ionic contrast medium (Iopamiron 370, Bayer, Osaka). The scan conditions included radiation parameters of 200 μA and 90 kV, FOV of 60 mm, and acquisition time of 34 s. CT images were collected, reconstructed, and observed using I-View-R software (Rigaku, The Woodlands, TX). Averaged CT attenuation images and dynamic PET images were reconstructed and fused using the Siemens Inveon Research Workplace (IRW) 4.0 software.
Regions of interest (ROI) in major organs and tissues were drawn in the PET/CT fusion images by manual outlining the organs and tissues in the CT images throughout the image slices by using IRW 4.0 software. The average radioactivity concentration was obtained from mean pixel values in the ROI volume. Regional uptake of radioactivity was decay-corrected to the injection time and expressed as the standardized uptake value (SUV), normalized for injected radioactivity and body weight. SUV was calculated as SUV = (radioactivity per cubic centimeter tissue/injected radioactivity) × body weight in grams. TACs of the radioprobes in individual organ and tissue were determined. Values of area under time-activity curves (AUC2–60 min, SUV × min) were calculated from 2 to 60 min post-injection to minimize the early perfusion effects.

[4] = Ex vivo metabolite studies; assay type: in vivo; conditions: SD rats; for Ex vivo metabolite analysis, % of tailored L- and D-1MTrp entity in Brain / Ex vivo metabolite analysis, % of tailored L- and D-1MTrp entity in Pancreas / Ex vivo metabolite analysis, % of tailored L- and D-1MTrp entity in Plasma: HPLC, mean ± SEM, n = 4
Procedure: To validate the derivation of radioactivity into the relevant organs and tissues, we assessed the metabolites of both radiolabelled isomers in the blood, brain, and pancreas of rats. […] Few radioactive metabolites were detected in these three tissues at 15 and 60 min after ^11C-L-1MTrp and ^11C-D-1MTrp injection.
SD rats were injected with ^11C-L-1MTrp or ^11C-D-1MTrp (70–74 MBq, 0.4–0.6 nmol) via a lateral tail vein. The animals were sacrificed by cervical dislocation at 15 and 60 min after the injection. Blood was collected and centrifuged at 15000 rpm for 2 min at 4 °C to separate the plasma. Brain and pancreas were rapidly removed, then homogenized in equal volumes of 1 M HClO4 solution with a Silent Crusher S homogenizer (Heidolph Instruments). Plasma and homogenates of brain and pancreas from rats were deproteinized and then analyzed by HPLC as described in the stability assay in vitro.

[5] = In vitro stability assay in rat plasma; assay type: in vitro ADME; conditions: 37 °C, 90 min incubation, HPLC analysis
Procedure: To determine the in vitro property of the two newly-developed radioprobes, we performed plasma stability studies by HPLC analysis at 37 °C for 90 min. […] More than 95% of ^11C-L-1Mtrp and ^11C-D-1Mtrp remained intact and no detectable metabolites were found at least 90 min after plasma incubation in vitro.
^11C-L-1MTrp and ^11C-D-1MTrp (70–74 MBq, 0.4−0.6 nmol) was dissolved in 2 mL of freshly isolated rat plasma and incubated at 37 °C for 90 min. After 0, 30, 60 and 90 min, an aliquot of 300 μL incubated mixture was taken, proteins in plasma were precipitated with equal volumes of 1 M HClO4 solution, followed by centrifugation at 15000 rpm for 2 min at 4 °C. The supernatant was collected and analyzed by HPLC (Capcell Pack UG80 column, 4.6 mm i.d. × 250 mm) with […] phosphate buffer/CH3CN (8.5/1.5, v/v) at a flow rate of 1 mL/min.

Compound: Cn1cc(C[C@@H](N)C(=O)O)c2ccccc21 [D-1MTrp, 1-Methyl-D-tryptophan, reference compound]
- Antitumor activity in in vivo studies [1]: superior antitumor activity
- Biodistribution, radioactivity in Kidney ([2]; 60 min after injection): 1.16 %ID/g tissue
- SUV in the kidney ([3]; mean ± SEM, four rats): 1.79

Compound: [11CH3]n1cc(C[C@H](N)C(=O)O)c2ccccc21 [^11C-L-1MTrp, 1-N-^11C-methyl-L-tryptophan]
- Biodistribution, radioactivity in Blood ([2]; 1 min after injection): 1.34 ± 0.03 %ID/g tissue
- Biodistribution, radioactivity in Brain ([2]; 1 min after injection): 0.14 ± 0.00 %ID/g tissue
- Biodistribution, radioactivity in Heart ([2]; 1 min after injection): 1.13 ± 0.01 %ID/g tissue
- Biodistribution, radioactivity in Intestine ([2]; 1 min after injection): 1.27 ± 0.05 %ID/g tissue
- Biodistribution, radioactivity in Kidney ([2]; 1 min after injection): 2.60 ± 0.02 %ID/g tissue
- Biodistribution, radioactivity in Liver ([2]; 1 min after injection): 1.51 ± 0.03 %ID/g tissue
- Biodistribution, radioactivity in Lung ([2]; 1 min after injection): 0.98 ± 0.02 %ID/g tissue
- Biodistribution, radioactivity in Muscle ([2]; 1 min after injection): 0.18 ± 0.02 %ID/g tissue
- Biodistribution, radioactivity in Pancreas ([2]; 1 min after injection): 2.95 ± 0.23 %ID/g tissue
- Biodistribution, radioactivity in Spleen ([2]; 1 min after injection): 0.98 ± 0.05 %ID/g tissue
- Biodistribution, radioactivity in Blood ([2]; 5 min after injection): 0.65 ± 0.01 %ID/g tissue
- Biodistribution, radioactivity in Brain ([2]; 5 min after injection): 0.20 ± 0.01 %ID/g tissue
- Biodistribution, radioactivity in Heart ([2]; 5 min after injection): 0.64 ± 0.01 %ID/g tissue
- Biodistribution, radioactivity in Intestine ([2]; 5 min after injection): 0.68 ± 0.01 %ID/g tissue
- Biodistribution, radioactivity in Kidney ([2]; 5 min after injection): 1.64 ± 0.03 %ID/g tissue
- Biodistribution, radioactivity in Liver ([2]; 5 min after injection): 0.73 ± 0.01 %ID/g tissue
- Biodistribution, radioactivity in Lung ([2]; 5 min after injection): 0.62 ± 0.01 %ID/g tissue
- Biodistribution, radioactivity in Muscle ([2]; 5 min after injection): 0.46 ± 0.01 %ID/g tissue
- Biodistribution, radioactivity in Spleen ([2]; 5 min after injection): 0.61 ± 0.00 %ID/g tissue
- Biodistribution, radioactivity in Blood ([2]; 15 min after injection): 0.54 ± 0.02 %ID/g tissue
- Biodistribution, radioactivity in Brain ([2]; 15 min after injection): 0.27 ± 0.02 %ID/g tissue
- Biodistribution, radioactivity in Heart ([2]; 15 min after injection): 0.54 ± 0.02 %ID/g tissue
- Biodistribution, radioactivity in Intestine ([2]; 15 min after injection): 0.53 ± 0.02 %ID/g tissue
- Biodistribution, radioactivity in Kidney ([2]; 15 min after injection): 1.11 ± 0.06 %ID/g tissue
- Biodistribution, radioactivity in Liver ([2]; 15 min after injection): 0.61 ± 0.03 %ID/g tissue
- Biodistribution, radioactivity in Lung ([2]; 15 min after injection): 0.50 ± 0.02 %ID/g tissue
- Biodistribution, radioactivity in Muscle ([2]; 15 min after injection): 0.46 ± 0.02 %ID/g tissue
- Biodistribution, radioactivity in Pancreas ([2]; 15 min after injection): 2.65 ± 0.16 %ID/g tissue
- Biodistribution, radioactivity in Spleen ([2]; 15 min after injection): 0.55 ± 0.02 %ID/g tissue
- Biodistribution, radioactivity in Blood ([2]; 30 min after injection): 0.50 ± 0.01 %ID/g tissue
- Biodistribution, radioactivity in Brain ([2]; 30 min after injection): 0.30 ± 0.02 %ID/g tissue
- Biodistribution, radioactivity in Heart ([2]; 30 min after injection): 0.49 ± 0.01 %ID/g tissue
- Biodistribution, radioactivity in Intestine ([2]; 30 min after injection): 0.51 ± 0.00 %ID/g tissue
- Biodistribution, radioactivity in Kidney ([2]; 30 min after injection): 0.86 ± 0.03 %ID/g tissue
- Biodistribution, radioactivity in Liver ([2]; 30 min after injection): 0.55 ± 0.01 %ID/g tissue
- Biodistribution, radioactivity in Lung ([2]; 30 min after injection): 0.45 ± 0.01 %ID/g tissue
- Biodistribution, radioactivity in Muscle ([2]; 30 min after injection): 0.45 ± 0.01 %ID/g tissue
- Biodistribution, radioactivity in Pancreas ([2]; 30 min after injection): 2.70 ± 0.17 %ID/g tissue
- Biodistribution, radioactivity in Spleen ([2]; 30 min after injection): 0.51 ± 0.01 %ID/g tissue
- Biodistribution, radioactivity in Blood ([2]; 60 min after injection): 0.50 ± 0.02 %ID/g tissue
- Biodistribution, radioactivity in Brain ([2]; 60 min after injection): 0.31 ± 0.01 %ID/g tissue
- Biodistribution, radioactivity in Heart ([2]; 60 min after injection): 0.47 ± 0.02 %ID/g tissue
- Biodistribution, radioactivity in Intestine ([2]; 60 min after injection): 0.46 ± 0.02 %ID/g tissue
- Biodistribution, radioactivity in Kidney ([2]; 60 min after injection): 0.74 ± 0.04 %ID/g tissue
- Biodistribution, radioactivity in Liver ([2]; 60 min after injection): 0.54 ± 0.02 %ID/g tissue
- Biodistribution, radioactivity in Lung ([2]; 60 min after injection): 0.43 ± 0.02 %ID/g tissue
- Biodistribution, radioactivity in Muscle ([2]; 60 min after injection): 0.45 ± 0.02 %ID/g tissue
- Biodistribution, radioactivity in Pancreas ([2]; 60 min after injection): 2.27 ± 0.05 %ID/g tissue
- Biodistribution, radioactivity in Spleen ([2]; 60 min after injection): 0.48 ± 0.01 %ID/g tissue
- Radioactivity in the brain, pancreas, and blood associated with L- and D-1MTrp ([4]; 15 and 60 min after injection): more than 94%
- Ex vivo metabolite analysis, % of tailored L- and D-1MTrp entity in Brain ([4]; 15 min after injection): 98.38 ± 0.34%
- Ex vivo metabolite analysis, % of tailored L- and D-1MTrp entity in Pancreas ([4]; 15 min after injection): 94.73 ± 1.64%
- Ex vivo metabolite analysis, % of tailored L- and D-1MTrp entity in Plasma ([4]; 15 min after injection): 97.67 ± 0.18%
- Ex vivo metabolite analysis, % of tailored L- and D-1MTrp entity in Brain ([4]; 60 min after injection): 98.93 ± 0.51%
- Ex vivo metabolite analysis, % of tailored L- and D-1MTrp entity in Pancreas ([4]; 60 min after injection): 95.88 ± 0.64%
- Ex vivo metabolite analysis, % of tailored L- and D-1MTrp entity in Plasma ([4]; 60 min after injection): 98.44 ± 0.13%
- SUV in the kidney ([3]; mean ± SEM, four rats): 0.94 ± 0.03
- SUV in the pancreas ([3]; mean ± SEM, four rats): 2.28 ± 0.28
- SUV in the liver, spleen, heart, blood, muscle, lung, brain and intestine ([3]; span over these organs): 0.43 ~ 0.70
- Fraction remaining intact in rat plasma [5]: More than 95%
